From the OligoGym collection
Several values for one entry are separate records, joined by “and”; a condition that tells them apart may be missing. Equal values may be shown once. After the bases stand the sugars from the 5' end (letter, count) and the backbone: PS all phosphorothioate, else s phosphorothioate and o phosphodiester by linkage. Methylation of C is not given here. e = 2'-O-(2-methoxyethyl) (MOE); k = constrained ethyl (cEt); d = 2'-deoxy (DNA)

Target: SOD1
Conditions: ASO

## AATGTTTATCAGGATA (sugars ekddddddddekekee, linkages s1 o1 s8 o3 s2)
A431, 0.12 µM
  target mRNA inhibition: 10%
A431, 0.6 µM
  target mRNA inhibition: 30%
A431, 3 µM
  target mRNA inhibition: 51%
A431, 15 µM
  target mRNA inhibition: 72%

## ACACTTTTAAGATTACAGTG (sugars e5 d10 e5, PS)
HepG2, 5 µM
  target mRNA inhibition: 15%

## AATTACACCACAAGCCA (sugars e2 k2 d9 k2 e2, PS)
HepG2, 4 µM
  target mRNA inhibition: 56%

## CCCCACACCTTCACTGG (sugars e3 k2 d7 k2 e3, PS)
HepG2, 3 µM
  target mRNA inhibition: 14%

## AGTCATCTGCTTTTTCA (sugars e3 k2 d7 k2 e3, PS)
HepG2, 3 µM
  target mRNA inhibition: 76%

## AATGTTTATCAGGATAC (sugars e2 k2 d9 k2 e2, PS)
HepG2, 0.1875 µM
  target mRNA inhibition: 43%
HepG2, 0.75 µM
  target mRNA inhibition: 75%
HepG2, 3 µM
  target mRNA inhibition: 91%
HepG2, 4 µM
  target mRNA inhibition: 90%
HepG2, 12 µM
  target mRNA inhibition: 97%

## AGTGTTTAATGTTTAT (sugars kekeddddddddekek, linkages s1 o3 s8 o1 s2)
A431, 0.12 µM
  target mRNA inhibition: 2%
A431, 0.6 µM
  target mRNA inhibition: 31%
A431, 3 µM
  target mRNA inhibition: 47%
A431, 15 µM
  target mRNA inhibition: 61%

## GGATACATTTCTACAG (sugars kekeddddddddekek, linkages s1 o3 s8 o1 s2)
A431, 0.12 µM
  target mRNA inhibition: 0%
A431, 0.6 µM
  target mRNA inhibition: 0%
A431, 3 µM
  target mRNA inhibition: 0%
A431, 15 µM
  target mRNA inhibition: 14%

## TCACACAATTACACTTT (sugars e2 k2 d8 k2 e3, PS)
HepG2, 5 µM
  target mRNA inhibition: 28%

## GTTTATTGGGCGATCCC (sugars e2 k2 d9 k2 e2, PS)
HepG2, 4 µM
  target mRNA inhibition: 68%

## GGCCAATGATGCAATGGTCT (sugars e5 d10 e5, PS)
HepG2, 5 µM
  target mRNA inhibition: 9%

## ATAAAACTATACAAATC (sugars e3 k2 d7 k2 e3, PS)
HepG2, 3 µM
  target mRNA inhibition: 14%

## GCTAGCAGGATAACAGA (sugars e2 k2 d9 k2 e2, PS)
HepG2, 4 µM
  target mRNA inhibition: 43%

## ACCACAAGCCAAACGACTTC (sugars e5 d10 e5, PS)
HepG2, 5 µM
  target mRNA inhibition: 28%

## TGATTTAAGTCTGGCAA (sugars e2 k2 d9 k2 e2, PS)
HepG2, 5 µM
  target mRNA inhibition: 52%

## TCGCCCTTCAGCACGCA (sugars e2 k2 d8 k2 e3, PS)
HepG2, 4 µM
  target mRNA inhibition: 56% and 55%
HepG2, 5 µM
  target mRNA inhibition: 53% and 64%
HepG2, 12 µM
  target mRNA inhibition: 71%

## ATTGAAACAGACATTTTAAC (sugars e5 d10 e5, PS)
HepG2, 5 µM
  target mRNA inhibition: 0%

## GTTTAATGTTTATCAGGATA (sugars e5 d10 e5, PS)
HepG2, 0.1875 µM
  target mRNA inhibition: 15%
HepG2, 0.75 µM
  target mRNA inhibition: 37%
HepG2, 3 µM
  target mRNA inhibition: 70%
HepG2, 5 µM
  target mRNA inhibition: 71%
HepG2, 12 µM
  target mRNA inhibition: 88%

## CACCGTGTTTTCTGGATAGA (sugars e5 d10 e5, PS)
HepG2, 5 µM
  target mRNA inhibition: 24% and 11%

## GGGTTTTTATTCACAGG (sugars e3 k2 d7 k2 e3, PS)
HepG2, 3 µM
  target mRNA inhibition: 17%

## GAGGACTGCAACGGAAACCC (sugars e5 d10 e5, PS)
HepG2, 4 µM
  target mRNA inhibition: 24%

## TTATCAGGATACATTTC (sugars e2 k2 d9 k2 e2, PS)
HepG2, 4 µM
  target mRNA inhibition: 67%

## TCTGCTCGAAATTGATGATG (sugars e5 d10 e5, PS)
HepG2, 4 µM
  target mRNA inhibition: 14%

## TACAGCTAGCAGGATAA (sugars e3 k2 d7 k2 e3, PS)
HepG2, 3 µM
  target mRNA inhibition: 40%

## ATAAGTGCCATACAGGG (sugars e2 k2 d9 k2 e2, PS)
HepG2, 5 µM
  target mRNA inhibition: 46%

## ATGCCTCTCTTCATCCT (sugars e3 k2 d7 k2 e3, PS)
HepG2, 3 µM
  target mRNA inhibition: 0%

## AATGTTTATTGGGCGAT (sugars e2 k2 d8 k2 e3, PS)
HepG2, 4 µM
  target mRNA inhibition: 61%

## ATTTCTACAGCTAGCAGGAT (sugars e5 d10 e5, PS)
HepG2, 4 µM
  target mRNA inhibition: 69%
HepG2, 12 µM
  target mRNA inhibition: 82%

## CCATACAGGGTTTTTAT (sugars e2 k2 d8 k2 e3, PS)
HepG2, 5 µM
  target mRNA inhibition: 13%

## TTTAATGTTTATCAGG (sugars kekeddddddddekek, linkages s1 o3 s8 o1 s2)
A431, 0.12 µM
  target mRNA inhibition: 15%
A431, 0.6 µM
  target mRNA inhibition: 44%
A431, 3 µM
  target mRNA inhibition: 73%
A431, 15 µM
  target mRNA inhibition: 85%
HepG2, 0.222 µM
  target mRNA inhibition: 73%
HepG2, 0.667 µM
  target mRNA inhibition: 90%
HepG2, 2 µM
  target mRNA inhibition: 93%
HepG2, 6 µM
  target mRNA inhibition: 97%

## AATCCATGCAGGCCTTC (sugars e3 k2 d7 k2 e3, PS)
HepG2, 3 µM
  target mRNA inhibition: 13%

## CTTTTAATAGCCTCATA (sugars e2 k2 d9 k2 e2, PS)
HepG2, 5 µM
  target mRNA inhibition: 34%

## TGCTTCCCCACACCTTC (sugars e3 k2 d7 k2 e3, PS)
HepG2, 3 µM
  target mRNA inhibition: 43%

## TCAGCACGCACACGGCCTTC (sugars e5 d10 e5, PS)
HepG2, 0.1875 µM
  target mRNA inhibition: 6%
HepG2, 0.75 µM
  target mRNA inhibition: 12%
HepG2, 3 µM
  target mRNA inhibition: 51%
HepG2, 4 µM
  target mRNA inhibition: 52%
HepG2, 12 µM
  target mRNA inhibition: 88%

## AAACTATACAAATCTTC (sugars e3 k2 d7 k2 e3, PS)
HepG2, 3 µM
  target mRNA inhibition: 26%

## ACACCACAAGCCAAACG (sugars e2 k2 d8 k2 e3, PS)
HepG2, 4 µM
  target mRNA inhibition: 27%

## CTTCAATAGACACATCGGCC (sugars e5 d10 e5, PS)
HepG2, 5 µM
  target mRNA inhibition: 39% and 16%
